# Measurements as given in patent US11203597B2, “Crystalline spirocyclic compound, a dosage form containing, a method for using in treatment of disease, and a method for recrystallizing” (Altavant Sciences GmbH, priority 2018, dated 2021).
# Where two headings read alike, the source gives them in different places.
# What was measured:
# [1] = Competitive slurry experiments in n-heptane (XRPD); assay type: physicochemical; settings: slurry in 10 volumes of n-heptane
# Protocol: Competitive slurry experiments were performed to ascertain if Compound 1 samples of Form 1 and mixtures of Form 1 and Form 3 can be converted to Form 3. Pure Form 1 and Form 3 were also tested. First, 700 mg of Compound 1 were added in different ratios to 10 volumes of n-heptane and stirred for […] (Table 2). After 16 hours and four days, the samples were checked for polymorphic form by XRPD. […]
# [2] = Shake-flask solubility determination with stepwise addition of solvent; assay type: physicochemical
# From the text: The method applied was a shake-flask solubility determination with stepwise addition of the solvent until complete dissolution is observed visually.
structure (smiles),measurement,setting,value
CCOC(=O)[C@@H]1CC2(CCN(c3cc(O[C@H](c4ccc(Cl)cc4-c4ccccc4)C(F)(F)F)nc(N)n3)CC2)CN1 [ES928-60-2],XRPD 16 hours,[1],Mixture 1
same,XRPD 4 days,[1],Form 3
CCOC(=O)[C@@H]1CC2(CCN(c3cc(O[C@H](c4ccc(Cl)cc4-c4ccccc4)C(F)(F)F)nc(N)n3)CC2)CN1 [ES928-60-6],XRPD 16 hours,[1],Form 3
same,XRPD 4 days,[1],Form 3
CCOC(=O)[C@@H]1CC2(CCN(c3cc(O[C@H](c4ccc(Cl)cc4-c4ccccc4)C(F)(F)F)nc(N)n3)CC2)CN1 [ES928-60-3],XRPD 16 hours,[1],Form 3
same,XRPD 4 days,[1],Form 3
"CCOC(=O)[C@@H]1CC2(CCN(c3cc(O[C@H](c4ccc(Cl)cc4-c4ccccc4)C(F)(F)F)nc(N)n3)CC2)CN1 [Form 1, (S)-ethyl 8-(2-amino-6-((R)-1-(5-chloro-[1,1′-biphenyl]-2-yl)-2,2,2-trifluoroethoxy)pyrimidin-4-yl)-2,8-diazaspiro[4.5]decane-3-carboxylate]",solubility,"[2]; 2-methyl-tetrahydrofuran, organic solvent or mixture, thermodynamic from solid, 2-methyl-tetrahydrofuran, read-out: Solubility",97 to 970 mg/mL
same,solubility,[2]; 2-propanol,98 to 980 mg/mL
same,solubility,[2]; I-propanol,101 to 1010 mg/mL
same,solubility,"[2]; N,N-dimethyl-acetamide, organic solvent or mixture, thermodynamic from solid, N,N-dimethyl-acetamide, read-out: Solubility",96 to 960 mg/mL
same,solubility,[2]; acetic acid,32 to 95 mg/mL
same,solubility,"[2]; acetone, organic solvent or mixture, thermodynamic from solid, acetone, read-out: Solubility",96 to 960 mg/mL
same,solubility,"[2]; acetonitrile, organic solvent or mixture, thermodynamic from solid, acetonitrile, read-out: Solubility",99 to 990 mg/mL
same,solubility,"[2]; dimethyl sulfoxide, organic solvent or mixture, thermodynamic from solid, dimethyl sulfoxide, read-out: Solubility",101 to 1010 mg/mL
same,solubility,[2]; ethanol,96 to 960 mg/mL
same,solubility,"[2]; ethyl acetate, organic solvent or mixture, thermodynamic from solid, ethyl acetate, read-out: Solubility",101 to 1010 mg/mL
same,solubility,"[2]; formic acid 99%, organic solvent or mixture, thermodynamic from solid, formic acid 99%, read-out: Solubility",97 to 970 mg/mL
same,solubility,"[2]; isopropyl acetate, organic solvent or mixture, thermodynamic from solid, isopropyl acetate, read-out: Solubility",103 to 1030 mg/mL
same,solubility,"[2]; methanol, organic solvent or mixture, thermodynamic from solid, methanol, read-out: Solubility",99 to 990 mg/mL
same,solubility,"[2]; methyl isobutyl, organic solvent or mixture, thermodynamic from solid, methyl isobutyl, read-out: Solubility",99 to 990 mg/mL
same,solubility,"[2]; methyl tert-butyl ether, organic solvent or mixture, thermodynamic from solid, methyl tert-butyl ether, read-out: Solubility",102 to 1020 mg/mL
same,solubility,"[2]; n-heptane, organic solvent or mixture, thermodynamic from solid, n-heptane, read-out: Solubility",< 10.1 mg/mL
same,solubility,"[2]; tetrahydrofuran, organic solvent or mixture, thermodynamic from solid, tetrahydrofuran, read-out: Solubility",97 to 970 mg/mL
same,solubility,"[2]; toluene, organic solvent or mixture, thermodynamic from solid, toluene, read-out: Solubility",98 to 980 mg/mL
same,solubility,"[2]; water, thermodynamic from solid, water, read-out: Solubility",< 10 mg/mL
same,XRPD 16 hours,[1],remained as Form 1
same,XRPD 4 days,[1],slowly converts to Form 3
CCOC(=O)[C@@H]1CC2(CCN(c3cc(O[C@H](c4ccc(Cl)cc4-c4ccccc4)C(F)(F)F)nc(N)n3)CC2)CN1 [ES928-60-4],XRPD 16 hours,[1],Form 3
same,XRPD 4 days,[1],Form 3
CCOC(=O)[C@@H]1CC2(CCN(c3cc(O[C@H](c4ccc(Cl)cc4-c4ccccc4)C(F)(F)F)nc(N)n3)CC2)CN1 [ES928-60-S],XRPD 16 hours,[1],Form 3
same,XRPD 4 days,[1],Form 3
CCOC(=O)[C@@H]1CC2(CCN(c3cc(O[C@H](c4ccc(Cl)cc4-c4ccccc4)C(F)(F)F)nc(N)n3)CC2)CN1 [ES928-60-1],XRPD 16 hours,[1],Form 1
same,XRPD 4 days,[1],Form 3
